Reference: the supplement of paper PMC12463676, “Small-molecule dissolution of stress granules by redox modulation benefits ALS models” (Nature Chemical Biology, 2025)

Tests used:
lipoamide = compound: NC(=O)CCCCC1CCSS1 [lipoamide]; experiment: thermal stability z-score vs DMSO; higher = more thermally stabilized by treatment; details: HeLa, lipoamide concentration 100 µM
Protocol: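 Cellular thermal proteome profiling in HeLa cells. Cells were treated with 100 µM lipoamide for 1 h, with or without 1 mM arsenate for a further 1 h, then heated to ten temperatures (37-66.3 °C), and soluble protein was quantified by TMT mass spectrometry relative to 0.1% DMSO controls. The thermal stability score (sum of log2 fold changes minus the abundance score) was transformed to a z-score; mean of n = 3 experiments.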

potassium arsenate = compound: O=[As]([O-])(O)O.[K+] [potassium arsenate]; experiment: as above; details: HeLa; arsenate concentration 1 mM
Protocol: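 Cellular thermal proteome profiling in HeLa cells treated with 1 mM arsenate for 1 h (DMSO pretreatment), heated to ten temperatures (37-66.3 °C). Soluble protein was quantified by TMT mass spectrometry relative to DMSO controls; the thermal stability score was transformed to a z-score; mean of n = 3 experiments.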

[1] = arsenate co-treatment: 1 mM arsenate 1 h
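Also: each temperature applied for 3 min, abundance score taken as mean log2 fold change at the two lowest temperatures, z-score obtained by mean subtraction and division by SD.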

Chain of UniProt Q8NBJ4 (Q8NBJ4 whole entry): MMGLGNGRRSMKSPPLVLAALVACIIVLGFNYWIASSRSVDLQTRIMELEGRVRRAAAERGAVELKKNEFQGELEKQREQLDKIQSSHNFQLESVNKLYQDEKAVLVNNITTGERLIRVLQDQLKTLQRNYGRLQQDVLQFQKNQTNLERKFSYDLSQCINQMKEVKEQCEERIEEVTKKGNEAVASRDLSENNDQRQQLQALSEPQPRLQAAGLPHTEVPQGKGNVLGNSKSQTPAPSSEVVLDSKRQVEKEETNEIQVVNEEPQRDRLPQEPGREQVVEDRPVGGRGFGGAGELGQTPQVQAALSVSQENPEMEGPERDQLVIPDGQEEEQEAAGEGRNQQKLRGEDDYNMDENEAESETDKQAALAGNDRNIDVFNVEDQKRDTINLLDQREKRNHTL
Chain of UniProt Q5T3I0 (Q5T3I0 whole entry): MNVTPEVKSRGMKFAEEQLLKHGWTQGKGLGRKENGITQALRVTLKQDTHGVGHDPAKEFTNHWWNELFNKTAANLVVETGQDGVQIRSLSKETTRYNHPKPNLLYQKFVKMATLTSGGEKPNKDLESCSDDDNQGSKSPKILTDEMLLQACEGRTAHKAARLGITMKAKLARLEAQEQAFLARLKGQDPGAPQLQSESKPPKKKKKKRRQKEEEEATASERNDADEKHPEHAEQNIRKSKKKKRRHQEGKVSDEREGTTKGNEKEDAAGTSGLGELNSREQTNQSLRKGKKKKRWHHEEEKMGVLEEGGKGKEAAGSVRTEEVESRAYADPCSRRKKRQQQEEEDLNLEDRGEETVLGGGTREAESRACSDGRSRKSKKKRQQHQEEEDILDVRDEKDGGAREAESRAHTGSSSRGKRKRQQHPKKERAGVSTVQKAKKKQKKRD
Chain of UniProt P46926 (P46926 whole entry): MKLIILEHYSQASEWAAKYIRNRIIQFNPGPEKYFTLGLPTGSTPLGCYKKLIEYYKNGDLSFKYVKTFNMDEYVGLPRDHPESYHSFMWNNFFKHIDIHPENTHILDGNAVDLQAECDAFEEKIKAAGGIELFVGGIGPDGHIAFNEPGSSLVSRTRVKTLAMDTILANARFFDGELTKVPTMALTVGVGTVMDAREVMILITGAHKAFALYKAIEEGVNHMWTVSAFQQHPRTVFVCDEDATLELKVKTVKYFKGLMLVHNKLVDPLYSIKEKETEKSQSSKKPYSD
Chain of UniProt Q86WP2 (Q86WP2 whole entry): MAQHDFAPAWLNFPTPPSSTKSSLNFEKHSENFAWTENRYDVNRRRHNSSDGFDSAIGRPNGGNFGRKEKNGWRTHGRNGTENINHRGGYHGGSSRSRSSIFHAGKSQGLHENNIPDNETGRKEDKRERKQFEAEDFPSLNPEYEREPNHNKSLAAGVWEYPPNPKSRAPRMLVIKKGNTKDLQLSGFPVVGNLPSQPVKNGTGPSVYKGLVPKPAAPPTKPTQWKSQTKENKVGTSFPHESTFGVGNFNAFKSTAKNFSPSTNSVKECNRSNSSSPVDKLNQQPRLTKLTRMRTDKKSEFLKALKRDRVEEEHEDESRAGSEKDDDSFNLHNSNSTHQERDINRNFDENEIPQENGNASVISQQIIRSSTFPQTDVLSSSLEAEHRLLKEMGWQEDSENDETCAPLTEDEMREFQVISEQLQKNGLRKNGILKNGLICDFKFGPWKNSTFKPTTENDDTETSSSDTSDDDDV
Chain of UniProt P62993 (P62993 whole entry, looked up): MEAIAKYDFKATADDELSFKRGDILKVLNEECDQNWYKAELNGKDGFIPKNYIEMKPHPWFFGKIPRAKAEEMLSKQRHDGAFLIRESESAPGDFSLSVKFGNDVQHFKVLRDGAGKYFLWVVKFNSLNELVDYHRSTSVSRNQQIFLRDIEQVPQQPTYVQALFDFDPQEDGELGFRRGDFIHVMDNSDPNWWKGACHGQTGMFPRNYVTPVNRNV
Chain of UniProt Q96EK6 (Q96EK6 whole entry): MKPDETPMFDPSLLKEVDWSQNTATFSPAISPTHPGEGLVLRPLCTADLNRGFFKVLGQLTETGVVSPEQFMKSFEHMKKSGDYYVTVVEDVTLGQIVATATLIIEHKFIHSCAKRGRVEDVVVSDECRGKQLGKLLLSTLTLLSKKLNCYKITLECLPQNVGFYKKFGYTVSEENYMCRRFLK
Chain of UniProt Q3T906 (Q3T906 whole entry): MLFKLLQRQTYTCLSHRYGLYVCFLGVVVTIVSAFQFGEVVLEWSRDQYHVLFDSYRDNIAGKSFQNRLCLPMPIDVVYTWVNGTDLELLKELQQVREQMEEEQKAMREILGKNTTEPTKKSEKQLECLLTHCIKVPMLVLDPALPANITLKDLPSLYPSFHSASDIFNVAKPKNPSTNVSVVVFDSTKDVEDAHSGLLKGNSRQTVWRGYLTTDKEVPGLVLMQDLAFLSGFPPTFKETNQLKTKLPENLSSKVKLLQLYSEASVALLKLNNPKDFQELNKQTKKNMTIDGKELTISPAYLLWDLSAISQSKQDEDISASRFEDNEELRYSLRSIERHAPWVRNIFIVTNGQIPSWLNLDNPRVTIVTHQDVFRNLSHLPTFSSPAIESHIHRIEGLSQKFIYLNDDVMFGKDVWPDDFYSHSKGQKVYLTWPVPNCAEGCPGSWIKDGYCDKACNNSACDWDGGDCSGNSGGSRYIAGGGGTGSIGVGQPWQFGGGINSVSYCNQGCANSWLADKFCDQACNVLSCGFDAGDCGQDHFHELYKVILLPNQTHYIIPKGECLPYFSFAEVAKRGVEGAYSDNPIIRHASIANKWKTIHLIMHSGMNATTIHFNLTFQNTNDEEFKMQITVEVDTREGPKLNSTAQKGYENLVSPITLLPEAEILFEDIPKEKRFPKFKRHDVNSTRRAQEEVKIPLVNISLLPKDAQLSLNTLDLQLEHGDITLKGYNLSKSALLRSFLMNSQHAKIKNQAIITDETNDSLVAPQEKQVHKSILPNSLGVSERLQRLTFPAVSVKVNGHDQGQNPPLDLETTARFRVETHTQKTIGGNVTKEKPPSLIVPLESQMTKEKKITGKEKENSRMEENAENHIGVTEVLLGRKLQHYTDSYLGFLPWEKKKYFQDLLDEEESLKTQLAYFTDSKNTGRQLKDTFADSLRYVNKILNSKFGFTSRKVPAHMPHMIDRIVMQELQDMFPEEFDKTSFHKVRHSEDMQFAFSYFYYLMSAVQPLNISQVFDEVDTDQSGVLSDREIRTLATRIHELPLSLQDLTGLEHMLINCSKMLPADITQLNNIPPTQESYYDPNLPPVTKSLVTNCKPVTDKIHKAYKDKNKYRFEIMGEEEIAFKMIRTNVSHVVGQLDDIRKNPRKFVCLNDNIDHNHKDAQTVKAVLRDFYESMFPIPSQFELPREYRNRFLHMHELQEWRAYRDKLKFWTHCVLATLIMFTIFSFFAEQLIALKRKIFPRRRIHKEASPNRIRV
Chain of UniProt Q13322 (Q13322 whole entry): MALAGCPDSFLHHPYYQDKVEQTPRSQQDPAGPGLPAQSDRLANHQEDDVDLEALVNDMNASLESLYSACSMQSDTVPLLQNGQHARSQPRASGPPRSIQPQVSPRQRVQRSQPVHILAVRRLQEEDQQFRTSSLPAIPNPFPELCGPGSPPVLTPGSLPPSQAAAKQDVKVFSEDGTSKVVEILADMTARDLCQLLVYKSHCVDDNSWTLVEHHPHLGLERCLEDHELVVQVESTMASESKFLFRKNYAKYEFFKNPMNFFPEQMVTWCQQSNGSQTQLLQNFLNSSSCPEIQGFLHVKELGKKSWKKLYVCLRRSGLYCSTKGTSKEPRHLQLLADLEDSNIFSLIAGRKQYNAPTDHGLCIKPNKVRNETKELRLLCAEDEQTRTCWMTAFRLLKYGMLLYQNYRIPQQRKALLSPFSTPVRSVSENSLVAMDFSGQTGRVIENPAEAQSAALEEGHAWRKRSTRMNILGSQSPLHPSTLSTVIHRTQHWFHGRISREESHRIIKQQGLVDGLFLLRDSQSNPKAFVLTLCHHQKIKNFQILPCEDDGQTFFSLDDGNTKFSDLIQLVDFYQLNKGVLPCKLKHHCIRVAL
Chain of UniProt Q9H4A5 (Q9H4A5 whole entry): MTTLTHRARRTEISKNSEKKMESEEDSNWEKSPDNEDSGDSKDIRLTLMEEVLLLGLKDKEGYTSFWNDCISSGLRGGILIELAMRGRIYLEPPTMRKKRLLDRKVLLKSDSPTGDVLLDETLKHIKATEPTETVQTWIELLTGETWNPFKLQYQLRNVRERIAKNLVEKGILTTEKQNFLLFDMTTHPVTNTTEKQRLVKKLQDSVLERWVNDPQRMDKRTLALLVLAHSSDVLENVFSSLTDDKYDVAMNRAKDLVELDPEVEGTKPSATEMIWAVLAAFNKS
Chain of UniProt Q9NQX3 (Q9NQX3 whole entry): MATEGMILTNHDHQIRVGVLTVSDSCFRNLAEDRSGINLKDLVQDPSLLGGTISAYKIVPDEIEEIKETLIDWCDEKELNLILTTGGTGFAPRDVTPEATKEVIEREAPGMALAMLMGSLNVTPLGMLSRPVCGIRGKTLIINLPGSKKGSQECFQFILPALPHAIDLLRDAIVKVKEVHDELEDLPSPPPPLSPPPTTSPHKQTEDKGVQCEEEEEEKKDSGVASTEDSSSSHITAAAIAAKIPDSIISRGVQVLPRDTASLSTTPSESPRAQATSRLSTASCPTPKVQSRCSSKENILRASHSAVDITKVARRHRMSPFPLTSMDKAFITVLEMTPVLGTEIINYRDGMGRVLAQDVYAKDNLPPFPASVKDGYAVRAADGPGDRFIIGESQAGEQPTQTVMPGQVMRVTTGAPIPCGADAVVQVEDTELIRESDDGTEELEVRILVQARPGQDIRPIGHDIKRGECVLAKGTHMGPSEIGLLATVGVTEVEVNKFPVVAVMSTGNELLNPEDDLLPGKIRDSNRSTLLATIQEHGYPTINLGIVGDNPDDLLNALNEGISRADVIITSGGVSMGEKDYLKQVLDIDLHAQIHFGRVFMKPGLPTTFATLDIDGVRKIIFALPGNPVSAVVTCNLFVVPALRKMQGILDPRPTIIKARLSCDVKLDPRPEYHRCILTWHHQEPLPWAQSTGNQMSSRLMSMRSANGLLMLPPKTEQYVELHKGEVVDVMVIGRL
Chain of UniProt Q9UBI6 (Q9UBI6 whole entry): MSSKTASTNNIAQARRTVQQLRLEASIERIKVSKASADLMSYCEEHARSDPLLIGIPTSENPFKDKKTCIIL

Target	thermal stability z-score (lipoamide; [1])	thermal stability z-score (lipoamide; arsenate co-treatment: none)	thermal stability z-score (potassium arsenate)
GNG12 (UniProt Q9UBI6)	1.21	1.3	0.329
GNL1 (UniProt P36915)	-0.411	-0.369	0.175
GNL2 (UniProt Q13823)	-0.195	-0.0312	-1.8
GNL3 (UniProt Q9BVP2)	-0.0335	0.0515	-0.437
GNL3L (UniProt Q9NVN8)	-0.151	0.0609	-0.0324
GNPAT (UniProt O15228)	0.161	0.296	0.518
GNPDA1 (UniProt P46926)	0.699	0.687	0.272
GNPDA2 (UniProt Q8TDQ7)	-0.212	-0.181	-0.0337
GNPNAT1 (UniProt Q96EK6)	0.365	-0.348	-1.03
GNPTAB (UniProt Q3T906)	-2.42	-1.66	-0.467
GNS (UniProt P15586)	-0.0525	-0.0481	-0.512
GOLGA1 (UniProt Q92805)	-0.956	-0.268	0.92
GOLGA2 (UniProt Q08379)	-0.426	-0.0551	0.679
GOLGA3 (UniProt Q08378)	0.291	0.128	0.587
GOLGA4 (UniProt Q13439)	-0.45	0.00058	0.774
GOLGA5 (UniProt Q8TBA6)	0.419	0.582	0.197
GOLGA7 (UniProt Q7Z5G4)	-1.29	-0.742	-1.71
GOLGB1 (UniProt Q14789)	-0.345	-0.0596	0.886
GOLIM4 (UniProt O00461)	-0.589	-0.17	0.283
GOLM1 (UniProt Q8NBJ4)	0.000985	-0.136	-0.568
GOLPH3 (UniProt Q9H4A6)	-0.65	-0.881	-0.641
GOLPH3L (UniProt Q9H4A5)	0.105	-1.21	-0.58
GOLT1B (UniProt Q9Y3E0)	0.0321	0.0691	-0.117
GOPC (UniProt Q9HD26)	-0.587	0.0054	0.591

Target	thermal stability z-score (lipoamide; [1])	thermal stability z-score (lipoamide; arsenate co-treatment: none)	thermal stability z-score (potassium arsenate)
GORAB (UniProt Q5T7V8)	0.521	0.173	0.527
GORASP2 (UniProt Q9H8Y8)	0.45	-0.749	0.824
GOSR1 (UniProt O95249)	0.726	0.473	-0.0465
GOT1 (UniProt P17174)	0.656	0.623	0.118
GOT2 (UniProt P00505)	0.218	0.18	-0.0952
GPAA1 (UniProt O43292)	-1.09	-1.12	0.145
GPALPP1 (UniProt Q8IXQ4)	-0.0123	0.162	-0.865
GPAM (UniProt Q9HCL2)	1.02	-0.15	-0.448
GPAT4 (UniProt Q86UL3)	-0.413	0.478	-0.231
GPATCH2 (UniProt Q9NW75)	-0.115	0.00549	0.239
GPATCH4 (UniProt Q5T3I0)	1.04	0.36	0.695
GPATCH8 (UniProt Q9UKJ3)	1.48	0.761	-0.238
GPATCH11 (UniProt Q8N954)	-0.804	-0.268	0.108
GPBP1 (UniProt Q86WP2)	-0.514	-0.441	-0.111
GPBP1L1 (UniProt Q9HC44)	-0.469	-0.326	0.365
GPCPD1 (UniProt Q9NPB8)	0.65	0.136	2.8
GPD1L (UniProt Q8N335)	0.106	-0.108	-0.935
GPD2 (UniProt P43304)	0.223	0.223	-0.0843
GPHN (UniProt Q9NQX3)	-0.406	-0.149	-0.949
GPKOW (UniProt Q92917)	0.182	0.0635	-1.58
GPN1 (UniProt Q9HCN4)	-0.0201	-0.00238	0.212
GPN2 (UniProt Q9H9Y4)	0.0332	0.0213	-0.222
GPN3 (UniProt Q9UHW5)	-0.0577	-0.282	-0.524
GPR89A|GPR89B	-0.28	-0.026	-0.0938

Target	thermal stability z-score (lipoamide; [1])	thermal stability z-score (lipoamide; arsenate co-treatment: none)	thermal stability z-score (potassium arsenate)
GPR107 (UniProt Q5VW38)	-0.0315	0.243	0.169
GPR108 (UniProt Q9NPR9)	0.455	-0.359	0.967
GPR126 (UniProt Q86SQ4)	-1.33	-1.02	-0.42
GPRC5A (UniProt Q8NFJ5)	0.158	-0.194	0.816
GPRIN1 (UniProt Q7Z2K8)	0.529	-0.0428	-0.256
GPS1 (UniProt Q13098)	0.881	0.892	0.904
GPT2 (UniProt Q8TD30)	0.342	0.427	-0.153
GPX1 (UniProt P07203)	0.0953	0.0517	-0.087
GPX4 (UniProt P36969)	-0.524	-0.696	0.286
GPX8 (UniProt Q8TED1)	-4.37	-5.4	0.394
GRAMD1A (UniProt Q96CP6)	-1.5	-1.05	0.0677
GRAMD1B (UniProt Q3KR37)	-0.102	0.0763	-0.00294
GRAMD3 (UniProt Q96HH9)	0.155	0.0561	-0.0476
GRB2 (UniProt P62993)	0.496	0.364	0.0852
GRB10 (UniProt Q13322)	-0.159	-0.12	-0.636
GRHPR (UniProt Q9UBQ7)	-0.261	0.411	1.22
GRIPAP1 (UniProt Q4V328)	0.163	0.254	1.53
GRN (UniProt P28799)	0.151	-0.477	0.505
GRPEL1 (UniProt Q9HAV7)	-0.953	0.246	-0.236
GRPEL2 (UniProt Q8TAA5)	-0.105	-0.123	0.107
GRSF1 (UniProt Q12849)	-0.892	-0.354	0.26
GRWD1 (UniProt Q9BQ67)	0.304	0.0318	-0.541
GSDMD (UniProt P57764)	0.143	0.362	-0.198
